Experimental data: patent publication US20240270821A1, “GIP/GLP1/GCG TRI-RECEPTOR AGONISTS AND USES THEREOF” (priority 2023, published 2024)
Like-named read-outs stand apart in the source and are kept apart here. Starred links: 1 amine or outer side, 2 acyl side, 3 side chain; linkers in the order of their positions; H or OH if unused. Non-standard residues stand in square brackets, D forms with d. Groups on a side chain read outwards from the residue. No end group written: not given here. *: point of attachment. C18 diacid = O=C(O)CCCCCCCCCCCCCCCCC(=O)*; αMePhe(2-F) = C[C@](N)(Cc1ccccc1F)C(=O)O; γGlu = O=C(O)[C@H](CCC(=O)[*:2])N[*:1]; αMe4Pal = C[C@](N)(Cc1ccncc1)C(=O)O; αMeY = C[C@](N)(Cc1ccc(O)cc1)C(=O)O; αMeF = C[C@](N)(Cc1ccccc1)C(=O)O; 4Pal = N[C@@H](Cc1ccncc1)C(=O)O; αMeL = CC(C)C[C@](C)(N)C(=O)O; αMeS = C[C@](N)(CO)C(=O)O; Orn = NCCC[C@H](N)C(=O)O; AEEA = NCCOCCOCC(=O)O; Aib = CC(C)(N)C(=O)O

Columns and labels:
Type in all cases: cell-based
[1] = target: human GcgR (Homo sapiens, UniProt P47871); experiment: Functional cAMP activity in the presence of 1% HSA; details: read-out: cAMP Rel EC50, hGcgR
Sequence of human GcgR (P47871 26-477): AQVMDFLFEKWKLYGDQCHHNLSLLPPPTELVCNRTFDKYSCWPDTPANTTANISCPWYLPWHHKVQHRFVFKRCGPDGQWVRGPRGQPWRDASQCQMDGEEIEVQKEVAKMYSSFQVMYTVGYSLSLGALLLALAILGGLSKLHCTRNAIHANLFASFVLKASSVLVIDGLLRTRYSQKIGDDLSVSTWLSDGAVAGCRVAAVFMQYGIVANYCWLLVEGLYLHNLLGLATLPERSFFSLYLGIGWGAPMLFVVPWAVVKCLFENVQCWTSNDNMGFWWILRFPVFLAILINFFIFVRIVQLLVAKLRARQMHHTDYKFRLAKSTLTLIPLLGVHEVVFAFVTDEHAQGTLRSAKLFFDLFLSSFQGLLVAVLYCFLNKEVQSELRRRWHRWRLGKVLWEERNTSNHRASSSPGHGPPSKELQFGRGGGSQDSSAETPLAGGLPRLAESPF

[2] = target: hGcgR (Homo sapiens, UniProt P47871); experiment: Functional cAMP activation in the presence of 0.1% casein (no HSA); details: read-out: Relative cAMP EC50, hGcgR;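 further: intracellular cAMP rise after 30 min at 37 °C, read by HTRF against a cAMP standard curve, scaled from buffer only (0%) to maximal control ligand response (100%)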
Sequence of hGcgR (P47871 26-477): as above

[3] = target: T1, hGIPR (Homo sapiens, UniProt P48546); experiment: as above; details: read-out: Relative cAMP EC50, hGIPR;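 further: intracellular cAMP rise after 30 min at 37 °C read by HTRF against a standard curve, scaled between buffer alone (0%) and top control ligand concentration (100%), four-parameter fit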
T1 sequence (P48546 22-466): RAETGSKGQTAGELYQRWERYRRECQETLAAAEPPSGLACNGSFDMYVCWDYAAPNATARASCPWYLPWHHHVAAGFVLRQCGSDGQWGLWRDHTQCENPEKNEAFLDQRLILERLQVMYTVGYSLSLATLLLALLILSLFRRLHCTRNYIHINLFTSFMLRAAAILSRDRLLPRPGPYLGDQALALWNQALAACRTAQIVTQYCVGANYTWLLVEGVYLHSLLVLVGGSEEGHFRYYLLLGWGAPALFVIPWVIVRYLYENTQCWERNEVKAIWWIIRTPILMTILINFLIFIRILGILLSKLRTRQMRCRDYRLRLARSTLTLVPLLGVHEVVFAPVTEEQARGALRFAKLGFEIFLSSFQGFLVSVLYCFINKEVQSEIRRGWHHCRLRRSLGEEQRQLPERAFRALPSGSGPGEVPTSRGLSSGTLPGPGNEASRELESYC

[4] = target: T1, hGIPR; experiment: Functional cAMP activity in the presence of 1% HSA; details: read-out: cAMP Rel EC50, hGIPR
[5] = target: T2, hGLP-1R (Homo sapiens, UniProt P43220); experiment: Functional cAMP activation in the presence of 0.1% casein (no HSA); details: read-out: Relative cAMP EC50, hGLP-1R;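 further: intracellular cAMP rise after 30 min at 37 °C read by HTRF, normalized between buffer only (0%) and maximal control ligand (100%), four-parameter variable-slope fit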
T2 sequence (P43220 24-463): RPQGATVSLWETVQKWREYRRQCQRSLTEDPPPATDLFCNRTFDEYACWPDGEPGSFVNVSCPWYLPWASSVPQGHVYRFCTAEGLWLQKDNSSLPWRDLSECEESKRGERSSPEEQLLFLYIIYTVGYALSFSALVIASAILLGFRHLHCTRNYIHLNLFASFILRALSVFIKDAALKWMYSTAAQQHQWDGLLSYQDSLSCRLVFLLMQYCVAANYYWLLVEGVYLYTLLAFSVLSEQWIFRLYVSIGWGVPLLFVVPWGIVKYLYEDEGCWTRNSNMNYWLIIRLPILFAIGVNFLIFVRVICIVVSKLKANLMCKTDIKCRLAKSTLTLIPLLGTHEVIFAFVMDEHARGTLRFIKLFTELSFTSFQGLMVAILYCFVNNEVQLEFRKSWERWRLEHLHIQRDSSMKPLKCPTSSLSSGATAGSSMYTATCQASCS

[6] = target: T2, hGLP-1R; experiment: Functional cAMP activity in the presence of 1% HSA; details: read-out: cAMP Rel EC50, hGLP-1R
[7] = in the presence of 0.1% casein (no HSA), geometric mean

Molecule | EC50 [1] | EC50 [2] | EC50 [3] | EC50 [4] | EC50 [5] | EC50 [6] | EC50 [2, 7] | EC50 [3, 7] | EC50 [5, 7]
Y[Aib]QGT[αMePhe(2-F)]TSD[4Pal][αMeS]I[αMeL]LD[Orn]K([Glu-γGlu-C18 diacid])AQ[Aib][Orn]FI[dE][αMeY]LSEGGPSSGEPPPSGTEE-NH2 [Example 564] | 667 nM | 10.2 nM | 0.176 nM | 10.8 nM | 1.33 nM | 101 nM | – | – | –
Y[Aib]QGT[αMePhe(2-F)]TSD[4Pal][αMeS]I[αMeL]LD[Orn]K([γGlu-γGlu-C18 diacid])AQ[Aib][Orn]FI[dE][αMeY]LTEGGPSSGEPPPEGTEE-NH2 [Example 597] | 329 nM | 5.2 nM | 0.0643 nM | 2.38 nM | 0.6 nM | 36.4 nM | – | – | –
CC[C@H](C)[C@H](NC(=O)[C@H](Cc1ccccc1)NC(=O)[C@H](CCCN)NC(=O)C(C)(C)NC(=O)[C@H](CCC(N)=O)NC(=O)[C@H](C)NC(=O)[C@H](CCCCNC(=O)[C@@H](CCC(=O)O)NC(=O)CC[C@H](NC(=O)CCCCCCCCCCCCCCCCC(=O)O)C(=O)O)NC(=O)[C@H](CCCN)NC(=O)[C@H](CC(=O)O)NC(=O)[C@H](CC(C)C)NC(=O)[C@](C)(CC(C)C)NC(=O)[C@@H](NC(=O)[C@](C)(CO)NC(=O)[C@H](Cc1ccncc1)NC(=O)[C@H](CC(=O)O)NC(=O)[C@H](CO)NC(=O)[C@@H](NC(=O)[C@](C)(Cc1ccccc1F)NC(=O)[C@@H](NC(=O)CNC(=O)[C@H](CCC(N)=O)NC(=O)C(C)(C)NC(=O)[C@@H](N)Cc1ccc(O)cc1)[C@@H](C)O)[C@@H](C)O)[C@@H](C)CC)C(=O)N[C@H](CCC(=O)O)C(=O)N[C@@](C)(Cc1ccc(O)cc1)C(=O)N[C@@H](CC(C)C)C(=O)N[C@@H](CCC(N)=O)C(=O)N[C@@H](CCC(=O)O)C(=O)NCC(=O)NCC(=O)N1CCC[C@H]1C(=O)N[C@@H](CO)C(=O)N[C@@H](CO)C(=O)NCC(=O)N[C@@H](CCC(=O)O)C(=O)N1CCC[C@H]1C(=O)N1CCC[C@H]1C(=O)N1CCC[C@H]1C(=O)N[C@@H](CCC(=O)O)C(=O)NCC(=O)N[C@H](C(=O)N[C@@H](CCC(=O)O)C(=O)N[C@@H](CCC(=O)O)C(=O)N[C@@H](CCC(=O)O)C(N)=O)[C@@H](C)O [Example 596] | 385 nM | 5.71 nM | 0.0455 nM | 1.98 nM | 0.592 nM | 36.6 nM | – | – | –
H-Y[Aib]QGT[αMePhe(2-F)]TSD[4Pal]SI[αMeL]LD[Orn]K([AEEA-γGlu-C18 diacid])AQ[αMe4Pal]EFI[dE][αMeY]LLEGGPSSGEPPPSGS-NH2 [Example 645] | 398 nM | 3.25 nM | 0.00724 nM | 0.863 nM | 0.596 nM | 76.3 nM | – | – | –
H-Y[Aib]QGT[αMePhe(2-F)]TSD[4Pal][αMeS]I[αMeL]LD[Orn]K([AEEA-γGlu-γGlu-C18 diacid])AQ[αMe4Pal]EFI[dE][αMeY]LIEGGPSSGAPPPSGGGE-NH2 [Example 1180] | 205 nM | – | – | 0.341 nM | – | 35.6 nM | 3.16 nM | 0.00602 nM | 0.445 nM
H-Y[Aib]QGT[αMeF]TSD[4Pal][αMeS]I[αMeL]LD[Orn]K([AEEA-γGlu-C18 diacid])AQ[αMe4Pal]EFI[dE][αMeY]LIEGGPSSGAPPPSGE-NH2 [Example 1164] | 359 nM | – | – | 1.17 nM | – | 63.5 nM | 2.83 nM | 0.0104 nM | 0.495 nM
H-Y[Aib]QGT[αMePhe(2-F)]TSD[4Pal][αMeS]I[αMeL]LD[Orn]K([γGlu-γGlu-C18 diacid])AQ[Aib][Orn]FI[dE][αMeY]LSEGGPSSGEPPPSGGE-NH2 [Example 559] | 323 nM | 4.07 nM | 0.119 nM | 9.15 nM | 0.542 nM | 49.7 nM | – | – | –
